# From a melting point compilation (Tetko et al.; mined from patent text by program, amines drawn as free bases though some values may be those of a salt)
row,Compound,melting point
1,O=C(O)Cc1ccccc1OCCNC(=O)C1Cc2ccccc2N1S(=O)(=O)c1ccc(-c2cccc(C(F)(F)F)c2)cc1 (centres undefined),131 to 134 °C
2,Cc1ccc(O)c2c1N(Cc1ccccc1)C(=O)C2(C)C,128 to 129 °C
3,Nc1nc2c(s1)CCN(CC=Cc1ccccc1)CC2,120 to 124 °C
4,CCOC(=O)c1c(C)nc2c(c1NCCCN1CCOCC1)NC(=O)CN2,168 to 170 °C
5,O=C(CN1CCC(Cc2ccccc2)CC1)Nc1ccc2c(c1)CC(=O)N2,166 to 170 °C
6,CC(=O)c1cc(S)c(Cl)cc1CC(=O)OCF,125 to 126 °C
7,Cc1nc(OCC(F)(F)F)c([N+](=O)[O-])c(N2CCN(c3ccc(F)cc3)CC2)n1,92 to 95 °C
8,CP(C)(=O)CN1CCC(Oc2c(F)c(F)c(F)c(F)c2F)CC1,120 to 123 °C
9,C=CCN(CCC)S(=O)(=O)NC(=O)c1cc(N)c(F)cc1Cl,104 to 106 °C
10,O=C(Nc1cn2cc(Cl)ccc2n1)c1ccc(-n2cccn2)cc1,287 to 289 °C
11,CC(C)Cn1c(=O)n(C)c(=O)c2c(C#CCCO)n(Cc3cccc4ccccc34)cc21,170 to 171 °C
12,CCOC(OCC)P(=O)(O)CCCN(C)Cc1ccc(Cl)cc1,170 °C
13,C=CCC12CC(=O)N(C)C1(O)CCc1ccc(OCc3ccccc3)cc12 (centres undefined),188 to 190 °C
14,CC(C)(O)C#Cc1cccc(Nc2nccc(-c3sc(N)nc3-c3ccccc3)n2)c1,262 to 263 °C
15,CS(=O)c1ccc(-c2coc3ccc(-c4nnc(SCc5cccc(C(F)(F)F)c5)o4)cc23)cc1 (centres undefined),176 to 177 °C
16,CCCCCC(=O)Nc1c(C)c(C)c2c(c1C)C(c1ccc(C)cc1)C(C)(C)O2 (centres undefined),96 to 97 °C
17,Cc1cc(Cl)nc2ccc(Cn3ccnc3)cc12,121 °C
18,CSc1ccc2ncn(/C=C/C(=O)O)c(=O)c2c1,271 to 272 °C
19,O=C1COCCN1c1ccc(N2C[C@@H](CI)OC2=O)cc1,154 to 157 °C
20,C=CCn1c(=O)n(CC=C)c(=O)n(-c2cc(N3C(=O)C4=C(CCCC4)C3=O)c(F)cc2Cl)c1=O,80 to 85 °C

row,Compound,melting point
1,COC(=O)Cn1cccc(O)c1=O,141 to 142 °C
2,O=c1cc2c(nn1-c1ccc(Cl)cc1)-c1ccccc1S(=O)(=O)CC2,> 310 °C
3,Cc1c(C)c2c(c(C)c1NC(=O)C(=O)C(C)(C)C)C(c1ccc(C(C)C)cc1)CO2 (centres undefined),142 to 143 °C
4,COc1ccc(C(=O)c2ccc(OCCBr)cc2)cc1,112 to 113 °C
5,CCOC(=O)c1cccc(C)c1S(N)(=O)=O,93 to 94 °C
6,COc1ccc(C(=O)c2cccc(C(=O)O)c2)c(O)c1,229 to 236 °C
7,COc1cc2c(cc1OC)CN(CCc1cccc(NC(=O)c3cccc4c(=O)c5cccc(OC)c5[nH]c34)c1)CC2,152 °C
8,C[C@H]1CN(c2c(F)c(F)c3c(=O)c(C(=O)O)cn(C4CC4)c3c2F)C[C@H]1N (relative stereo),255 to 256 °C
9,Cc1ccccc1Nc1nc(NCCc2ccccc2)nc2ccccc12,95 to 96 °C
10,COc1ccc(-c2cc(C#N)nnc2-c2ccc(OC)cc2)cc1,113 to 115 °C
11,N#Cc1sc2cc(N)ccc2c1Cl,158 to 160 °C
12,CC(C)(C)c1ccc(S(=O)(=O)NCCCCOc2ccc(-n3ccnc3)cc2)cc1,138 to 140 °C
13,COCc1ccc(S(=O)(=O)N2CCCC2c2ccc(F)cc2)cc1 (racemic),115 °C
14,Oc1ccc(-c2nnc(-c3cccc(-c4nnc(-c5ccc(O)cc5)o4)c3)o2)cc1,> 400 °C
15,O=C(O)CCCCCNC(=O)c1ccc(NC(=O)c2ccccc2O)cc1,201 to 203 °C
16,CC(=O)Nc1ccc2oc([N+](=O)[O-])c(-c3ccccc3)c2c1,204 to 207 °C
17,Clc1ccc2nc3c4ccccc4c4ccccc4c3nc2c1,241 to 242 °C
18,CSCC(O)(Cn1cncn1)c1ccc(Cl)cc1Cl (centres undefined),117 to 119 °C
19,CCSc1ccc(Oc2ccc(Cl)c(Cl)c2)nc1C#N,64 to 66 °C
